Laboratory results published in patent US12122778B2, “Activating pyruvate kinase R” (Novo Nordisk Health Care AG, priority 2018, dated 2024).

Tests used:
PKR(G332S) = PKR(G332S) (Homo sapiens, UniProt P30613, G332S); experiment: Luminescence Biochemical Assay (Kinase Glo Plus), PKR G332S mutant; conditions: with FBP; for activation at 1.54 µM: 1.54 μM compound, read-out: AC50 LUM KGP FBP % Fold@1.54 μM mean; for AC50: read-out: AC50 LUM KGP FBP AC50 μM gmean (column A); for Emax: read-out: AC50 LUM KGP FBP MAX % FOLD mean
Chain of PKR(G332S) (P30613 whole entry G332S): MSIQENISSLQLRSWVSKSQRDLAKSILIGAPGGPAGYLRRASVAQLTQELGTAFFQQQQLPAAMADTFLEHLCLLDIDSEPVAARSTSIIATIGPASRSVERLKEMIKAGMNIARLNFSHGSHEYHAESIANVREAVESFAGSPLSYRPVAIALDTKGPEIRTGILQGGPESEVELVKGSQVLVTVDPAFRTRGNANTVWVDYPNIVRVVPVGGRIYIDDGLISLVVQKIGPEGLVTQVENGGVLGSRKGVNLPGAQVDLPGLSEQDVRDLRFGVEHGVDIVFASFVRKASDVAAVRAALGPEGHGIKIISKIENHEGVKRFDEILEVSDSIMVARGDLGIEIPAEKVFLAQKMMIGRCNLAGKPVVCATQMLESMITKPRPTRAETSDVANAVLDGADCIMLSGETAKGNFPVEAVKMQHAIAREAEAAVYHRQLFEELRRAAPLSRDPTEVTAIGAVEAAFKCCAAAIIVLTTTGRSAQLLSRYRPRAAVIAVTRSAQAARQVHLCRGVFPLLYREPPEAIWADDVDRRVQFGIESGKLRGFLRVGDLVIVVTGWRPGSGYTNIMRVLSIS
Method: In some embodiments, a PKR Activating Compound can have: (1) an AC50 value of less than 0.1 μM (e.g., compounds with AC50 values of “+++” in Table 13), 0.1-1.0 μM (e.g., compounds with AC50 values of “++” in Table 13), or 1.01-40 μM (e.g., compounds with AC50 values of “+” in Table 13); (2) a MAX % Fold of 75%-250%, 250-500%, or 75%-500%; and/or (3) a % Fold@1.54 μM of 75%-250%, 250-500%, or 75%-500%. In some embodiments, a PKR Activating Compound has (1) an AC50 value of less than 1.0 μM; (2) a MAX % Fold of 75%-500%; and/or (3) a % Fold@1.54 μM of 75%-500%.
The phosphorylation of Adenosine-5′-diphosphate (ADP) by various mutants of PKR was determined by the Kinase Glo Plus Assay (Promega) in the presence or absence of FBP [D-Fructose-1,6-diphosphate; BOC Sciences, CAS: 81028-91-3] as follows. Unless otherwise indicated, all reagents were purchased from Sigma-Aldrich. All reagents were prepared in buffer containing 50 mM Tris-HCl, 100 mM KCl, 5 mM MgCl2, and 0.01% Triton X100, 0.03% BSA, and 1 mM DTT. Enzyme and PEP [Phospho(enol) pyruvic acid] were added at 2× to all wells of an assay-ready plate containing serial dilutions of test compounds or DMSO vehicle. Final enzyme concentrations for PKR(wt), PKR(R510Q), and PKR(G332S) were 0.8 nM, 0.8 nM, and 10 nM respectively. Final PEP concentration was 100 μM. The Enzyme/PEP mixture was incubated with compounds for 30 minutes at RT before the assay was initiated with the addition of 2×ADP [Adenosine-5′-diphosphate] and KinaseGloPlus. Final concentration of ADP was 100 μM. […] For assays containing FBP, that reagent is added at 30 μM upon reaction initiation. Reactions were allowed to progress for 45 minutes at RT until luminescence was recorded by the BMG PHERAstar FS Multilabel Reader. All compounds were tested in triplicate at concentrations ranging from 42.5 μM to 2.2 nM in 0.83% DMSO.
Luminescence values were converted to % Fold increase by normalizing to the average of the DMSO control and multiplying by 100. Max, min, slope and AC50 were determined by the standard four parameter fit algorithm of ActivityBase XE Runner. Compounds were evaluated with three parameters—AC50, MAX % Fold, and % Fold@1.54 μM (FIG. 1). The AC50 value for a compound is the concentration (μM) corresponding to the midway between the maximum and minimum values of the four parameter logistic curve fit (i.e., at which the % fold increase along the four parameter logistic curve fit is halfway between MAX % Fold and MIN % Fold (% Fold Midpoint)), MAX % Fold is the highest fold increase observed at any concentration of compound, and % Fold@1.54 μM is the fold increase at a compound concentration of 1.54 μM. The parameter % Fold@1.54 μM was selected to capture elements of both the AC50 and MAX % Fold and to provide a ranking based on both potency and effect. The compound concentration of 1.54 μM was chosen as one that can optimally differentiate the set of compounds based on the range of activities observed.
As set forth in Table 13 below, AC50 values (columns A, D, G) are defined as follows: ≤0.1 μM (+++); >0.1 μM and ≤1.0 μM (++); >1.0 μM and ≤40 μM (+); >40 μM (0). Max % FOLD values (columns B, E, H) are defined as follows: ≤75% (+); >75% and ≤250% (++); >250% and ≤500% (+++). % Fold@1.54 μM values (columns C, F, J) are defined as follows: ≤75% (+); >75% and ≤250% (++); >250% and ≤50000 (+++).

PKR(R510Q) = PKR(R510Q) (Homo sapiens, UniProt P30613, R510Q); experiment: Luminescence Biochemical Assay (Kinase Glo Plus), PKR R510Q mutant; conditions: without FBP; for activation at 1.54 µM: 1.54 μM compound, read-out: AC50 LUM KGP woFBP % Fold@1.54 μM mean; for AC50: read-out: AC50 LUM KGP woFBP AC50 μM gmean; for Emax: read-out: AC50 LUM KGP woFBP MAX % FOLD mean
Chain of PKR(R510Q) (P30613 whole entry R510Q): as the sequence (P30613 whole entry G332S) above, with S332G, R510Q counted along it

PKR(wt) = PKR(wt) (Homo sapiens, UniProt P30613); experiment: Luminescence Biochemical Assay (Kinase Glo Plus), wild type PKR; conditions: without FBP; for activation at 1.54 µM: 1.54 μM compound, read-out: AC50 LUM KGP woFBP % Fold@1.54 μM mean; for AC50: read-out: AC50 LUM KGP woFBP AC50 μM gmean; for Emax: read-out: AC50 LUM KGP woFBP MAX % FOLD mean
Chain of PKR(wt) (P30613 whole entry): as the sequence (P30613 whole entry G332S) above, with S332G counted along it

Row | Compound | activation at 1.54 µM (PKR(G332S)) | AC50 (PKR(G332S)) | Emax (PKR(G332S)) | activation at 1.54 µM (PKR(R510Q)) | AC50 (PKR(R510Q)) | Emax (PKR(R510Q)) | activation at 1.54 µM (PKR(wt)) | AC50 (PKR(wt)) | Emax (PKR(wt))
1 | O=C(N1CCOCC1)N1CC2=C(C1)CN(S(=O)(=O)c1ccc3ncsc3c1)C2 [Example 6-1, (5-(benzo[d]thiazol-6-ylsulfonyl)-3,4,5,6-tetrahydropyrrolo[3,4-c]pyrrol-2(1H)-yl)(morpholino)methanone] | 75 to 250% | 1 to 40 µM | 75 to 250% | 75 to 250% | 1 to 40 µM | 250 to 500% | 75 to 250% | 1 to 40 µM | 250 to 500%
2 | O=C(Cc1ccccn1)N1CC2=C(C1)CN(S(=O)(=O)c1ccc(OC(F)F)cc1)C2 [Example 8-1, 1-(5-[[4-(difluoromethoxy)benzene]sulfonyl]-1H,2H,3H,4H,5H,6H-pyrrolo[3,4-c]pyrrol-2-yl)-2-(pyridin-2-yl)ethan-1-one] | 75 to 250% | ≤ 0.1 µM | 75 to 250% | 250 to 50000% | 0.1 to 1 µM | 250 to 500% | 250 to 50000% | 0.1 to 1 µM | 250 to 500%
3 | O=C(C(O)c1cccnc1)N1CC2=C(C1)CN(S(=O)(=O)c1ccc(OC(F)F)cc1)C2 (centres unmarked) [Example 9-1, 1-(5-[[4-(Difluoromethoxy)benzene]sulfonyl]-1H,2H,3H,4H,5H,6H-pyrrolo[3,4-c]pyrrol-2-yl)-2-hydroxy-2-(pyridin-3-yl)ethan-1-one] | 75 to 250% | ≤ 0.1 µM | 75 to 250% | 250 to 50000% | ≤ 0.1 µM | 250 to 500% | 250 to 50000% | ≤ 0.1 µM | 250 to 500%
4 | O=C([C@H](O)c1ccccc1)N1CC2=C(C1)CN(S(=O)(=O)c1ccccn1)C2 [Example 9-2, (2R)-2-hydroxy-2-phenyl-1-[5-(pyridine-2-sulfonyl)-1H,2H,3H,4H,5H,6H-pyrrolo[3,4-c]pyrrol-2-yl]ethan-1-one] | 75 to 250% | 0.1 to 1 µM | 75 to 250% | 75 to 250% | 0.1 to 1 µM | 250 to 500% | 75 to 250% | – | 75 to 250%
5 | O=C([C@H](O)c1ccccc1)N1CC2=C(C1)CN(S(=O)(=O)c1cccc(C(F)(F)F)n1)C2 [Example 9-3, (2R)-2-hydroxy-2-phenyl-1-[5-[6-(trifluoromethyl)pyridine-2-sulfonyl]-1H,2H,3H,4H,5H,6H-pyrrolo[3,4-c]pyrrol-2-yl]ethan-1-one] | 75 to 250% | 1 to 40 µM | 75 to 250% | 75 to 250% | 1 to 40 µM | 250 to 500% | 75 to 250% | 0.1 to 1 µM | 75 to 250%

Other lines, results leading:

Row | activation at 1.54 µM (PKR(G332S)) | AC50 (PKR(G332S)) | Emax (PKR(G332S)) | activation at 1.54 µM (PKR(R510Q)) | AC50 (PKR(R510Q)) | Emax (PKR(R510Q)) | activation at 1.54 µM (PKR(wt)) | AC50 (PKR(wt)) | Emax (PKR(wt)) | Compound
6 | 75 to 250% | 0.1 to 1 µM | 75 to 250% | 75 to 250% | 1 to 40 µM | 250 to 500% | 75 to 250% | 0.1 to 1 µM | 75 to 250% | O=C([C@H](O)c1ccccc1)N1CC2=C(C1)CN(S(=O)(=O)c1cccnc1)C2 [Example 4-1, (2R)-2-hydroxy-2-phenyl-1-[5-(pyridine-3-sulfonyl)-1H,2H,3H,4H,5H,6H-pyrrolo[3,4-c]pyrrol-2-yl]ethan-1-one]
7 | 75 to 250% | 1 to 40 µM | 75 to 250% | 75 to 250% | 1 to 40 µM | 75 to 250% | 75 to 250% | 1 to 40 µM | 75 to 250% | O=C([C@H](O)c1ccccc1)N1CC2=C(C1)CN(S(=O)(=O)c1cccnc1C(F)(F)F)C2 [Example 4-2, (R)-2-hydroxy-2-phenyl-1-(5-(2-(trifluoromethyl)pyridin-3-ylsulfonyl)-4,5-dihydropyrrolo[3,4-c]pyrrol-2(1H,3H,4H)-yl)ethanone]
8 | 75 to 250% | 0.1 to 1 µM | 75 to 250% | 75 to 250% | 1 to 40 µM | 250 to 500% | 75 to 250% | 0.1 to 1 µM | 250 to 500% | O=C(C1CCOCC1)N1CC2=C(C1)CN(S(=O)(=O)c1ccc3c(c1)NCCO3)C2 [Example 7-1, (5-((3,4-dihydro-2H-benzo[b][1,4]oxazin-6-yl)sulfonyl)-3,4,5,6-tetrahydropyrrolo[3,4-c]pyrrol-2(1H)-yl)(tetrahydro-2H-pyran-4-yl)methanone]
9 | 75 to 250% | 1 to 40 µM | 75 to 250% | 75 to 250% | 1 to 40 µM | 75 to 250% | 75 to 250% | 1 to 40 µM | 75 to 250% | O=C(N1CC2=C(C1)CN(S(=O)(=O)c1cccc3cccnc13)C2)N1CC(O)(Cc2ccccc2)C1 [Example 12-1, (3-Benzyl-3-hydroxyazetidin-1-yl)(5-(quinolin-8-ylsulfonyl)-4,5-dihydropyrrolo[3,4-c]pyrrol-2(1H,3H,4)-yl)methanone]
10 | 75 to 250% | 1 to 40 µM | 75 to 250% | 75 to 250% | 1 to 40 µM | 75 to 250% | 75 to 250% | 1 to 40 µM | 75 to 250% | CC(=O)Nc1cc(S(=O)(=O)N2CC3=C(CN(C(=O)[C@H](O)c4ccccc4)C3)C2)ccc1F [Example 14-1, (R)—N-(2-fluoro-5-((5-(2-hydroxy-2-phenylacetyl)-3,4,5,6-tetrahydropyrrolo[3,4-c]pyrrol-2(1H)-yl)sulfonyl)phenyl)acetamide]
11 | 75 to 250% | 0.1 to 1 µM | 75 to 250% | 250 to 50000% | ≤ 0.1 µM | 250 to 500% | 250 to 50000% | ≤ 0.1 µM | 250 to 500% | Cc1cccc(S(=O)(=O)N2CC3=C(CN(C(=O)NCc4ccccc4F)C3)C2)n1 [Example 15-1, N-[(2-fluorophenyl)methyl]-5-(6-methylpyridine-2-sulfonyl)-1H,2H,3H,4H,5H,6H-pyrrolo[3,4-c]pyrrole-2-carboxamide]
12 | 75 to 250% | 1 to 40 µM | 75 to 250% | 75 to 250% | 1 to 40 µM | 75 to 250% | 75 to 250% | 1 to 40 µM | 250 to 500% | O=C(Cc1cccnc1)N1CC2=C(C1)CN(S(=O)(=O)c1ccccn1)C2 [Example 16-1, 2-(Pyridin-3-yl)-1-[5-(pyridine-2-sulfonyl)-1H,2H,3H,4H,5H,6H-pyrrolo[3,4-c]pyrrol-2-yl]ethan-1-one]
13 | 75 to 250% | 1 to 40 µM | 75 to 250% | 75 to 250% | 1 to 40 µM | 75 to 250% | 75 to 250% | 1 to 40 µM | 75 to 250% | NS(=O)(=O)c1cccc(S(=O)(=O)N2CC3=C(CN(C(=O)[C@H](O)c4ccccc4)C3)C2)c1 [Example 17-1, 3-[5-[(2R)-2-hydroxy-2-phenylacetyl]-1H,2H,3H,4H,5H,6H-pyrrolo[3,4-c]pyrrole-2-sulfonyl]benzene-1-sulfonamide]
